In PubChem BioAssay (NCI):
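Each compound was tested at five concentrations against cells in 96-well plates for 48 hours. TGI: total growth inhibition.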

Legend:
Assay in all cases: growth of human tumour cells (NCI), 48 h
[1] = test system: LOX IMVI melanoma
[2] = test system: RPMI-8226 leukemia
[3] = test system: SNB-19 CNS
[4] = test system: SK-OV-3 ovarian
[5] = test system: U251 CNS
[6] = test system: A549 NSCLC
[7] = test system: MCF7 breast
[8] = test system: OVCAR-8 ovarian
[9] = test system: NCI-H460 lung
[10] = test system: BT-549 breast

Row | SMILES | TGI [1] [µM] | TGI [2] [µM] | TGI [3] [µM] | TGI [4] [µM] | TGI [5] [µM] | TGI [6] [µM] | TGI [7] [µM] | TGI [8] [µM] | TGI [9] [µM] | TGI [10] [µM]
1 | CC1=CC(O)C(O)C2(C)C1CC1OC(=O)C(O)C3C(C)C(O)C4(O)OCC13C42 (stereo not given) | 156 | 108 | 91.7 | 359 | 475 | 387 | 464 | > 570 | 50 | 
2 | O=C1/C(=C/c2ccccc2)CCc2ccc(Cl)nc21 |  | 7.88 | 41.5 | 73 | 16 | 38.4 | 13.2 | > 100 | > 64 | 32.1
3 | COc1ccc(/C=C2\Cc3ccccc3C2=O)cc1OC |  | > 100 | > 100 | > 100 | > 100 | > 100 |  | > 100 | > 100 | 
4 | O=S1(=O)NNC(=NCc2ccc(Cl)cc2)c2ccccc21 | > 100 | > 100 | > 100 |  | > 100 | > 100 |  | > 100 | > 100 | 
5 | CC(C)(C)N=C1CC(C)(C)c2ccccc2C(=Nc2ccccc2)S1 | 40.1 | 41.5 | > 100 | > 100 | > 100 | > 100 |  | > 100 | > 100 | 
6 | CC1(C)COC(c2cccc(C3=NC(C)(C)CO3)c2Br)=N1 | > 100 | > 100 | > 100 |  | > 100 | > 100 | > 100 | > 100 | > 100 | > 100
7 | CCCCc1c2c(nc3c1CCc1cc4c(nc1-3)-c1nc3c(c(CCCC)c1CC4)CCC/C3=C\c1ccccc1)/C(=C/c1ccccc1)CCC2 | > 100 | > 100 | > 100 | > 100 | > 100 | > 100 |  | > 100 | > 100 | 
8 | COc1ccc(C(O)c2ccc3c(c2)OCO3)cc1 (stereo not given) | > 100 |  | > 100 | > 100 | > 100 | > 100 | > 100 | > 100 | > 100 | > 100
9 | O=C(c1ccccc1)c1c(C(F)(F)F)n([O-])c2ccccc2[n+]1=O | > 100 | 3.34 | 3.23 |  | > 100 |  | 5.24 | 3.3 | 5.72 | 1.93
10 | NC(N)=N/N=C/c1c(-c2ccc([N+](=O)[O-])cc2)nc2sccn12 |  | 28.3 | 2.74 | 3.35 | 2.95 | 3.34 | 2.62 |  | 4.03 | 3.44
11 | C#CCNC(Cc1cnc[nH]1)C(=O)O (stereo not given) | > 100 | > 100 | > 100 | > 100 | > 100 | > 100 | > 100 | > 100 | > 100 | 
12 | CC1(C)O[C@@H](CO)[C@H]([C@@]23OC[C@H]4OC(C)(C)OC4[C@@H]2OC(C)(C)O3)O1 (stereo not given in full) | > 100 | > 100 | > 100 | > 100 | > 100 | > 100 | > 100 | > 100 | > 100 | 
